Test results reported in patent US20150119363A1, “METHODS OF TREATING BACTERIAL INFECTIONS” (Rampex Pharmaceuticals, Inc., priority 2012, published 2015).

Assays:
EC1007 KPC-3 = assay: Dose titration biapenem potentiation assay (MPC1); type: cell-based, Escherichia coli; settings: biapenem 1 μg/mL
Method in brief: (§1)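 Growth of carbapenemase-expressing strains measured with biapenem held at a sub-inhibitory 1 μg/mL; BLI compounds titrated from a top concentration of 40 μg/mL. MPC1 is the inhibitor concentration that restores growth inhibition by biapenem.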

ECL1004 NMC-A = assay: Dose titration biapenem potentiation assay (MPC1); type: cell-based, Enterobacter cloacae; settings: biapenem 1 μg/mL
Method in brief: as §1

[1] = tested on: Enterobacter cloacae ECL1058 (KPC-3, SHV-11, TEM-1); assay: Checkerboard assay, Compound 5 with biapenem; type: cell-based; settings: ECL1058
Excerpt: (§2) The potentiation effect is observed by the reduction of the minimum inhibitory concentration of β-lactam antibiotics in the presence of β-lactamase inhibitors (BLIs). […] Methods for Dilution of Antimicrobial Susceptibility Tests for Bacteria That Grow Aerobically—Eighth Edition; Approved Standard. CLSI Document M07-A8, 2009). In this assay, multiple dilutions of two drugs, namely BLI and β-lactam (biapenem), are being tested, alone and in combination, at concentrations equal to, above and below their respective minimal inhibitory concentrations (MICs). BLIs are solubilized in 10% DMSO at 10 mg/mL. Stock solutions are further diluted, according to the needs of a particular assay, in Mueller Hinton Broth (MHB). Stock solution can be stored at −80° C.
(§3) The checkerboard (CB) assay is performed in microtiter plates. Biapenem is diluted in the x axis, each column containing a single concentration of antibiotic. BLIs are diluted in the y axis, each row containing an equal concentration of BLI. The result of these manipulations is that each well of the microtiter plate contains a unique combination of concentrations of the two agents. The assay is performed in MHB with a final bacterial inoculum of 5×10^5 CFU/mL (from an early-log phase culture). Microtiter plates are incubated during 20 h at 35° C. and are read using a microtiter plate reader (Molecular Devices) at 650 nm as well as visual observation using a microtiter plate reading mirror.

[2] = tested on: Enterobacter cloacae ECL1059 (KPC-3, SHV-12, TEM-1); assay: Checkerboard assay, Compound 5 with biapenem; type: cell-based; settings: ECL1059
Excerpt: as §2, §3

[3] = tested on: Escherichia coli EC1007 (KPC-3); assay: Checkerboard assay, Compound 5 with biapenem; type: cell-based; settings: EC1007
Excerpt: as §2, §3

[4] = tested on: Klebsiella oxytoca KX1017 (KPC-2, OXA-2, SHV-30); assay: Checkerboard assay, Compound 5 with biapenem; type: cell-based; settings: KX1017
Excerpt: as §2, §3

[5] = tested on: Klebsiella oxytoca KX1019 (KPC-2, OXA-2); assay: Checkerboard assay, Compound 5 with biapenem; type: cell-based; settings: KX1019
Excerpt: as §2, §3

[6] = tested on: Klebsiella pneumoniae KP1004 (KPC-2); assay: Checkerboard assay, Compound 5 with biapenem; type: cell-based; settings: KP1004
Excerpt: as §2, §3

[7] = tested on: Klebsiella pneumoniae KP1008 (KPC-2); assay: Checkerboard assay, Compound 5 with biapenem; type: cell-based; settings: KP1008
Excerpt: as §2, §3

[8] = tested on: Klebsiella pneumoniae KP1082 (KPC-2, SHV-1); assay: Checkerboard assay, Compound 5 with biapenem; type: cell-based; settings: KP1082
Excerpt: as §2, §3

[9] = tested on: Klebsiella pneumoniae KP1083 (KPC-3, SHV-1, TEM-1); assay: Checkerboard assay, Compound 5 with biapenem; type: cell-based; settings: KP1083
Excerpt: as §2, §3

[10] = tested on: Klebsiella pneumoniae KP1084 (KPC-3, SHV-11, TEM-1); assay: Checkerboard assay, Compound 5 with biapenem; type: cell-based; settings: KP1084
Excerpt: as §2, §3

[11] = tested on: Klebsiella pneumoniae KP1087 (KPC-2, CTX-M-15, SHV-11, TEM-1); assay: Checkerboard assay, Compound 5 with biapenem; type: cell-based; settings: KP1087
Excerpt: as §2, §3

[12] = tested on: Klebsiella pneumoniae KP1088 (KPC-3, SHV-11, TEM-1); assay: Checkerboard assay, Compound 5 with biapenem; type: cell-based; settings: KP1088
Excerpt: as §2, §3

[13] = tested on: K. pneumoniae KP1081 (NDM-1, CMY-6, SHV-11, CTX-M-15, TEM-1); assay: Aztreonam/Tigemonam MIC at various concentrations of BLI; type: cell-based; settings: KP1081
Description: MIC values for each bacterial strain were measured for each antimicrobial compound at various concentrations of each BLI.

With `O=C(O)C[C@@H]1CC[C@H](NC(=O)Cc2cccs2)B(O)O1` [Compound 5, 2-((3R,6S)-2-hydroxy-3-(2-(thiophen-2-yl)acetamido)-1,2-oxaborinan-6-yl)acetic acid] the “BPM MPC1 EC1007 KPC-3” value (EC1007 KPC-3) was “X (X = MPC1 of less than 1 μg/mL.)”, the “BPM MPC1 ECL1004 NMC-A” value (ECL1004 NMC-A) was “X (X = MPC1 of less than 1 μg/mL.)” and the “Biapenem MIC” value ([1]; Compound 5 0.31 mg/L) was “Y (Y = MIC of 0.5 mg/L to 4 mg/L.)”. The “Biapenem MIC” value ([1]; Compound 5 0.625 mg/L) was “Y (Y = MIC of 0.5 mg/L to 4 mg/L.)”, the “Biapenem MIC” value ([1]; Compound 5 5 mg/L) was “X (X = MIC of less than 0.5 mg/L.)” and the “Biapenem MIC” value ([1]; Compound 5 10 mg/L) was “X (X = MIC of less than 0.5 mg/L.)”. For the same compound, the “Biapenem MIC” value ([2]; Compound 5 0.31 mg/L) was “X (X = MIC of less than 0.5 mg/L.)”, the “Biapenem MIC” value ([2]; Compound 5 0.625 mg/L) was “X (X = MIC of less than 0.5 mg/L.)” and the “Biapenem MIC” value ([2]; Compound 5 5 mg/L) was “X (X = MIC of less than 0.5 mg/L.)”. For the same compound, the “Biapenem MIC” value ([2]; Compound 5 10 mg/L) was “X (X = MIC of less than 0.5 mg/L.)”, the “Biapenem MIC” value ([2]; Compound 5 […]) was “X (X = MIC of less than 0.5 mg/L.)” and the “Biapenem MIC” value ([3]; Compound 5 0.31 mg/L) was “X (X = MIC of less than 0.5 mg/L.)”. The “Biapenem MIC” value ([3]; Compound 5 0.625 mg/L) was “X (X = MIC of less than 0.5 mg/L.)”, the “Biapenem MIC” value ([3]; Compound 5 5 mg/L) was “X (X = MIC of less than 0.5 mg/L.)” and the “Biapenem MIC” value ([3]; Compound 5 […]) was “X (X = MIC of less than 0.5 mg/L.)”. The “Biapenem MIC” value ([4]; Compound 5 0.31 mg/L) was “Y (Y = MIC of 0.5 mg/L to 4 mg/L.)”, the “Biapenem MIC” value ([4]; Compound 5 0.625 mg/L) was “X (X = MIC of less than 0.5 mg/L.)” and the “Biapenem MIC” value ([4]; Compound 5 5 mg/L) was “X (X = MIC of less than 0.5 mg/L.)”. For the same compound, the “Biapenem MIC” value ([4]; Compound 5 10 mg/L) was “X (X = MIC of less than 0.5 mg/L.)”, the “Biapenem MIC” value ([5]; Compound 5 0.31 mg/L) was “Y (Y = MIC of 0.5 mg/L to 4 mg/L.)” and the “Biapenem MIC” value ([5]; Compound 5 0.625 mg/L) was “Y (Y = MIC of 0.5 mg/L to 4 mg/L.)”. For the same compound, the “Biapenem MIC” value ([5]; Compound 5 5 mg/L) was “X (X = MIC of less than 0.5 mg/L.)”, the “Biapenem MIC” value ([5]; Compound 5 10 mg/L) was “X (X = MIC of less than 0.5 mg/L.)” and the “Biapenem MIC” value ([5]; Compound 5 […]) was “Y (Y = MIC of 0.5 mg/L to 4 mg/L.)”. The “Biapenem MIC” value ([6]; Compound 5 0.31 mg/L) was “X (X = MIC of less than 0.5 mg/L.)”, the “Biapenem MIC” value ([6]; Compound 5 0.625 mg/L) was “X (X = MIC of less than 0.5 mg/L.)” and the “Biapenem MIC” value ([6]; Compound 5 5 mg/L) was “X (X = MIC of less than 0.5 mg/L.)”. For the same compound, the “Biapenem MIC” value ([6]; Compound 5 10 mg/L) was “X (X = MIC of less than 0.5 mg/L.)”, the “Biapenem MIC” value ([6]; Compound 5 […]) was “X (X = MIC of less than 0.5 mg/L.)” and the “Biapenem MIC” value ([7]; Compound 5 0.31 mg/L) was “X (X = MIC of less than 0.5 mg/L.)”. For the same compound, the “Biapenem MIC” value ([7]; Compound 5 0.625 mg/L) was “X (X = MIC of less than 0.5 mg/L.)”, the “Biapenem MIC” value ([7]; Compound 5 5 mg/L) was “NG (NG = No Growth.)” and the “Biapenem MIC” value ([7]; Compound 5 10 mg/L) was “NG (NG = No Growth.)”. For the same compound, the “Biapenem MIC” value ([7]; Compound 5 […]) was “X (X = MIC of less than 0.5 mg/L.)”, the “Biapenem MIC” value ([8]; Compound 5 0.31 mg/L) was “X (X = MIC of less than 0.5 mg/L.)” and the “Biapenem MIC” value ([8]; Compound 5 0.625 mg/L) was “X (X = MIC of less than 0.5 mg/L.)”. For the same compound, the “Biapenem MIC” value ([8]; Compound 5 5 mg/L) was “X (X = MIC of less than 0.5 mg/L.)”, the “Biapenem MIC” value ([8]; Compound 5 10 mg/L) was “X (X = MIC of less than 0.5 mg/L.)” and the “Biapenem MIC” value ([8]; Compound 5 […]) was “X (X = MIC of less than 0.5 mg/L.)”. The “Biapenem MIC” value ([9]; Compound 5 0.31 mg/L) was “X (X = MIC of less than 0.5 mg/L.)”, the “Biapenem MIC” value ([9]; Compound 5 0.625 mg/L) was “X (X = MIC of less than 0.5 mg/L.)” and the “Biapenem MIC” value ([9]; Compound 5 5 mg/L) was “X (X = MIC of less than 0.5 mg/L.)”. For the same compound, the “Biapenem MIC” value ([10]; Compound 5 0.31 mg/L) was “Z (Z = MIC of greater than 4 mg/L.)”, the “Biapenem MIC” value ([10]; Compound 5 0.625 mg/L) was “Z (Z = MIC of greater than 4 mg/L.)” and the “Biapenem MIC” value ([10]; Compound 5 5 mg/L) was “X (X = MIC of less than 0.5 mg/L.)”. For the same compound, the “Biapenem MIC” value ([10]; Compound 5 10 mg/L) was “X (X = MIC of less than 0.5 mg/L.)”, the “Biapenem MIC” value ([11]; Compound 5 0.31 mg/L) was “Z (Z = MIC of greater than 4 mg/L.)” and the “Biapenem MIC” value ([11]; Compound 5 0.625 mg/L) was “Z (Z = MIC of greater than 4 mg/L.)”. The “Biapenem MIC” value ([11]; Compound 5 5 mg/L) was “X (X = MIC of less than 0.5 mg/L.)”, the “Biapenem MIC” value ([12]; Compound 5 0.31 mg/L) was “X (X = MIC of less than 0.5 mg/L.)” and the “Biapenem MIC” value ([12]; Compound 5 0.625 mg/L) was “X (X = MIC of less than 0.5 mg/L.)”. The “Biapenem MIC” value ([12]; Compound 5 5 mg/L) was “X (X = MIC of less than 0.5 mg/L.)”, the “Biapenem MIC” value ([12]; Compound 5 10 mg/L) was “X (X = MIC of less than 0.5 mg/L.)” and the “Aztreonam MIC (μg/ml) in the presence of BLI” value (“Aztreonam MIC (μg/ml)” below) ([13]; Compound 5 0.31 μg/ml) was 256 µg/mL. The “Aztreonam MIC (μg/ml)” value ([13]; Compound 5 0.63 μg/ml) was 128 µg/mL, the “Aztreonam MIC (μg/ml)” value ([13]; Compound 5 5 μg/ml) was 8 µg/mL and the “Aztreonam MIC (μg/ml)” value ([13]; Compound 5 10 μg/ml) was 4 µg/mL. For the same compound, the “Aztreonam MIC (μg/ml)” value ([13]; Compound 5 20 μg/ml) was 2 µg/mL.
